Several values for one entry are separate records, joined by “and”; a condition that tells them apart may be missing. Equal entries are not always repeated. Marks after values point to notes of the source that are not given here.
Columns and labels:
[1] = test system: advanced stage solid cancers; experiment: Tumor response to oral 3-AP; assay type: in vivo, human
[2] = Phase I dose escalation of oral 3-AP: adverse events; assay type: in vivo
[3] = test system: advanced stage cancers; settings: cited from earlier work
[4] = Serum pharmacokinetics and bioavailability of oral 3-AP
[5] = Serum pharmacokinetics of intravenous 3-AP; assay type: in vivo, human
[6] = in vivo, po
[7] = of 20 enrolled patients, all dose levels
[8] = 200 mg, represented grade 4 toxicity
[9] = adverse events attributed to treatment, 20 patients
[10] = Oral Route, oral dose 50 mg, individual patients
[11] = Oral Route, oral dose 100 mg, individual patients
[12] = Oral Route, oral dose 150 mg, individual patients
[13] = Oral Route, oral dose 200 mg, individual patients
[14] = Intravenous Route, 100 mg 2-hour infusion, individual patients

## NC(=S)NN=Cc1ncccc1N [3-AP, 3-aminopyridine-2-carboxaldehyde thiosemicarbazone]
[1]; in vivo
  median duration of stable disease response: 2 months
[1]; [7]
  Stable disease as the best response: 25%
  Stable disease as the best response, patients: 5
[1]; of 20 patients
  Therapy discontinued for disease progression: 50%
  progressive disease confirmed while on study, patients: 10
[1]; of 20 patients, after a median of 2 cycles
  Therapy discontinued for disease progression, patients: 10
[1]; one patient with pancreatic adenocarcinoma
  longest progression-free interval: 15 months
[1]; treated population with advanced solid tumors
  clinical benefit rate: 25%
[2]; [8]
  (AST/SGOT), Grade 3–4: 1 (50) ^* No. of Patients (%)
  Neutropenia, Grade 3–4: 1 (50) ^* No. of Patients (%)
  Thrombocytopenia, Grade 3–4: 1 (50) ^* No. of Patients (%)
[2]; All Gr 3–4, all dose levels
  (AST/SGOT), Grade 3–4: 1 (5) No. of Patients (%)
  Anorexia, Grade 3–4: 1 (5) No. of Patients (%)
  Fatigue, Grade 3–4: 1 (5) No. of Patients (%)
  Hemoglobin (anemia), Grade 3–4: 2 (10) No. of Patients (%)
  Hypertension, Grade 3–4: 1 (5) No. of Patients (%)
  Hypoxia, Grade 3–4: 2 (10) No. of Patients (%)
  Infection, Grade 3–4: 1 (5) No. of Patients (%)
  Neutropenia, Grade 3–4: 4 (20) No. of Patients (%)
  Thrombocytopenia, Grade 3–4: 1 (5) No. of Patients (%)
[2]; [9]
  (AST/SGOT), all grades: 10%
  (AST/SGOT), all grades, No. of Patients: 2
  Alkaline phosphatase, all grades: 10%
  Alkaline phosphatase, all grades, No. of Patients: 2
  Anorexia, all grades: 20%
  Anorexia, all grades, No. of Patients: 4
  Diarrhea, all grades: 5%
  Diarrhea, all grades, No. of Patients: 1
  Fatigue, all grades: 25%
  Fatigue, all grades, No. of Patients: 5
  Headache, all grades: 20%
  Headache, all grades, No. of Patients: 4
  Hemoglobin (anemia), all grades, No. of Patients: 7
  Hemorrhage, all grades, No. of Patients: 1
  Hyperglycemia, all grades: 15%
  Hyperglycemia, all grades, No. of Patients: 3
  Hypertension, all grades: 5/5%
  Hypertension, all grades, No. of Patients: 1/1
  Neutropenia, all grades, No. of Patients: 11
  Thrombocytopenia, all grades, No. of Patients: 6
  Thrombosis, all grades, No. of Patients: 0
  Vomiting, all grades: 15%
  Vomiting, all grades, No. of Patients: 3
[2]; among the 20 patients enrolled
  hematological and infectious adverse events observed, number: 27
[2]; human, in vivo
  Hypokalemia, all grades: 5%
  Hypokalemia, all grades, No. of Patients: 1
  Hypotension, all grades: 5/5%
  Hypotension, all grades, No. of Patients: 1/1
  Hypoxia, all grades: 10%
  Hypoxia, all grades, No. of Patients: 2
  Infection, all grades: 15%
  Infection, all grades, No. of Patients: 3
  Nausea, all grades: 25%
  Nausea, all grades, No. of Patients: 5
[2]; of 20 patients
  Therapy discontinued for adverse events: 40%
[2]; of 20 patients, after a median of 1 cycle
  Therapy discontinued for adverse events, patients: 8
[2]; oral 50 mg every 12 Hrs.
  DLT Description: grade 3 hypertension
[2]; oral 150 mg every 12 Hrs.
  DLT Description: grade 4 febrile neutropenia
[2]; oral 200 mg every 12 Hrs.
  DLT Description: grade 3 hypoxia
[2]; oral vs intravenous route
  MTD by the oral route higher than by the intravenous route: 33%
[2]; per dose, every 12 hours for 5 doses on days 1–3, 8–10, 15–17 of each 28-day cycle
  maximum tolerated dose (MTD) of oral 3-AP: 150 mg
[3]; phase 1, radiation, cisplatin and three-times weekly intravenous 3-AP 25 mg/m^2, advanced stage cervical cancer, 10 of 10 women
  durable 18-month complete pelvic tumor response rate: 100%
[3]; phase I, intravenous 3-AP in combination with gemcitabine, after 4 months of treatment
  patients with at least stable disease as a best response: 42%
[3]; phase II, intravenous 3-AP and gemcitabine, relapsed nonsmall cell lung cancer
  stable disease rate: 20%
[4]; [10]
  AUC: 5.2 µM·h and 1.9 µM·h and 3.5 µM·h and 1.6 µM·h and 1.4 µM·h and 4.1 µM·h
  Cmax: 1500 nM and 900 nM and 500 nM and 1100 nM
  MRT: 2.6 h and 3.0 h and 3.4 h
  Tmax: 3.0 h and 0.8 h and 1.0 h and 1.3 h
[4]; [11]
  AUC: 6.5 µM·h and 2.3 µM·h
  Cmax: 2500 nM
  MRT: 3.0 h
[4]; [12]
  AUC: 8.0 µM·h and 21.7 µM·h and 4.3 µM·h and 8.5 µM·h
  Cmax: 5900 nM and 1600 nM and 10100 nM
  MRT: 3.5 h and 1.7 h and 5.4 h and 3.3 h
  Tmax: 0.8 h and 6.0 h
[4]; [13]
  AUC: 56.0 µM·h and 19.5 µM·h
  Cmax: 800 nM and 4600 nM
  MRT: 3.9 h
  Tmax: 3.0 h
[4]; human, serum, po
  bioavailability: 67 ± 29%
[4]; human, serum, po, 50 mg, MRT, oral dose 50 mg, individual patients
  MRT: 4.2 h
[4]; human, serum, po, 100 mg, MRT, oral dose 100 mg, individual patients
  MRT: 2.8 h
[4]; human, serum, po, 150 mg, AUC, Avg., average for patients receiving an oral dose of 150 mg
  AUC: 10.6 µM·h
[4]; human, serum, po, 150 mg, Cmax, Avg., average for patients receiving an oral dose of 150 mg
  Cmax: 5000 nM
[4]; human, serum, po, 200 mg, MRT, oral dose 200 mg, individual patients
  MRT: 2.5 h
[4]; human, serum, po, MRT, Avg., mean across dose levels
  MRT: 3.2 h
[4]; human, serum, po, Tmax, Avg., mean across dose levels
  Tmax: 1.9 h
[5]; [14]
  AUC: 8.8 µM·h and 4.8 µM·h and 12.1 µM·h and 14.1 µM·h and 7.0 µM·h and 16.1 µM·h and 25.6 µM·h and 10.2 µM·h and 14.5 µM·h and 8.3 µM·h and 11.3 µM·h and 7.2 µM·h and 5.7 µM·h and 10.0 µM·h
  MRT (mean residence time): 2.4 h and 2.6 h and 3.0 h and 3.5 h and 2.3 h and 2.7 h and 3.1 h
[5]; Intravenous Route, 100 mg 2-hour infusion, serum, individual patients
  Cmax: 2800 nM and 5400 nM and 4700 nM and 6700 nM and 1900 nM and 3700 nM and 2700 nM and 3200 nM and 2900 nM and 2100 nM and 2500 nM
[5]; human, serum, iv, 100 mg
  Tmax: 2 h
[5]; human, serum, iv, 100 mg, AUC, Avg., 100 mg 2-hour infusion, mean
  AUC: 9.5 µM·h
[5]; human, serum, iv, 100 mg, Cmax, Avg., 100 mg 2-hour infusion, mean
  Cmax: 3500 ± 1400 nM
[5]; human, serum, iv, 100 mg, MRT (mean residence time), 100 mg 2-hour infusion, individual patients
  MRT: 2.5 h
[5]; human, serum, iv, 100 mg, MRT, Avg., 100 mg 2-hour infusion, mean
  MRT: 2.8 h
[5]; read-out: Cmax, Avg., Intravenous Route, 100 mg 2-hour infusion, mean
  Cmax: 2800 nM
[6]; human
  CL/F, Avg.: 0.017 L/h
[6]
  exposure of orally administered 3-AP versus dose: increased in a dose dependent manner
